Assay results taken from US20160039936A1, “FIBROBLAST GROWTH FACTOR RECEPTOR INHIBITION FOR THE TREATMENT OF DISEASE” (UNIVERSITY OF MIAMI, priority 2011, published 2016).

Columns and labels:
FGFR = settings: Hagel M et al 2015; cited from earlier work
isolated NRVM = assay: Cross-sectional area (hypertrophy) of isolated NRVM with receptor antagonists (Example 4); format: cell-based, rat; settings: NRVM 48 h, PD173074 10 nM, AZD4547 5 nM, anti-FGFR4 10 μg/ml
Experimental: NRVM were isolated using a standard isolation system (Worthington Biochemical Corporation) (Faul et al., 2011). Hearts from 1-2 day old Sprague Dawley rats were harvested, minced in calcium-and magnesium-free Hank's Balanced Salt Solution (HBSS), and the tissue digested with 50 μg/ml trypsin at 4° C. for 20-24 hours. Soybean trypsin inhibitor in HBSS was added, and the tissue was further digested with collagenase (in Leibovitz L-15 medium) under slow rotation (15 rpm) at 37° C. for 45 minutes. Cells were released by triturating the suspension 20 times with a standard 10 ml plastic serological pipette and filtering it twice through a cell strainer (70 μm, BD Falcon). Cells were incubated at room temperature for 20 minutes and spun at 100 g for 5 minutes. The cell pellet was resuspended in plating medium [Dulbecco's Modified Eagle Medium (DMEM; Cellgro) with 17% Media 199 (Invitrogen), 15% fetal bovine serum (FBS; Invitrogen) and 1% penicillin/streptomycin solution (P/S; Invitrogen)]. Cells were counted using a hemocytometer.
Cells were plated on glass and plastic surfaces, which were coated with laminin (Invitrogen; 10 μg/ml in PBS) at room temperature for 1 hour prior to plating. For immunofluorescence analysis, 3×10^5 cells were seeded per well on glass coverslips in 24-well plates. For Western blot or qPCR analyses of total extracts, 1×10^6 cells were seeded per well in 6-well plates, and for immunoprecipitation assays, 5×10^6 cells were seeded in 10 cm-culture dishes. Cells were left undisturbed in plating medium at 37° C. for 72 hours and then cultured in maintenance medium (DMEM with 20% Media 199, 1% insulin-transferrin-sodium selenite solution [ITS; Sigma-Aldrich] and 1% P/S) in the presence of 100 μM 5-bromo-2′-deoxyuridine (BrdU; Sigam-Aldrich). After 4 days, isolated cardiac myocytes were cultured in BrdU-containing maintenance medium in the presence of recombinant murine FGF23 or FGF2 (both at 25 ng/ml) for different time points.
Cultured cells were fixed in 2% PFA (in 5 mg/ml sucrose) for 5 minutes and permeabilized in 1% Triton X-100 (in PBS) for 10 minutes. We analyzed hypertrophic growth of isolated NRVM and NMVM on laminin-coated glass coverslips after 48 hours of treatment with growth factors. For FGFR4 expression and localization analyses, untreated NMVM from wild-type and FGFR4^−/− mice were immunolabeled. The mouse monoclonal antibody against sarcomeric α-actinin (EA-53; Sigma-Aldrich) was used at 1:1,000, and rabbit polyclonal anti-FGFR4 (C-16; Santa Cruz) at 1:50. Cy3-conjugated goat-anti mouse and Alexa488-conjugated goat-anti rabbit (Jackson Immuno Research) were used as secondary antibodies at 1:300. To visualize nuclei, fixed cells were incubated with 4′,6-diamidino-2-phenylindole (DAPI; 400 ng/ml in PBS) for 10 minutes. Immunofluorescence images were taken on a Leica TCS-SP5 confocal microscope with a 63× oil objective.
Myocyte cross-sectional area was measured based on α-actinin-positive staining using Leica AF6000 fluorescence software. To assess the signaling pathways involved in FGF23- and FGF2-mediated hypertrophy, we analyzed the morphometry of plated cells that were pre-treated with specific inhibitors for 60 minutes prior to the addition of the FGFs at 25 ng/ml (NRVMs) or at 100 ng/ml (NMVMs). The following inhibitors and concentrations were used: pan-FGFR, PD173074 (Sigma-Aldrich) at 10 nM; FGFR1-3, AZD4547 (ChemieTek) at 5 nM; and FGFR4 blocking antibody (human monoclonal, U3-11; U3Pharma) at 10 μg/ml.

| Compound | FGFR4 inhibition (FGFR) | FGF2-induced hypertrophy (cross-sectional area) with receptor antagonist (isolated NRVM; FGF2 25 ng/ml) | FGF23-induced hypertrophy (cross-sectional area) with receptor antagonist (isolated NRVM; FGF23 25 ng/ml) |
| --- | --- | --- | --- |
| C=CC(=O)Nc1cccc(C)c1Nc1ncc2cc(-c3c(Cl)c(OC)cc(OC)c3Cl)ccc2n1 [BLU9931] | very potent and selective |  |  |
| AZD4547 |  | prevented | but not FGF23-induced hypertrophy |
